One data set deals with CB1 (Rattus norvegicus, UniProt P20272). The experiment in a line: Rat CB1 receptor binding using brain membrane, [3H]SR141716A displacement (Protocol I). More on the design: CB1 receptor present in a rat brain membrane preparation; from tissue; host or cells: rat brain membrane; inhibition: dose or concentration left out as unconfirmed. As to conditions: for inhibition: 1 h. The method, then:
I. In Vitro Protocol for Rat CB1 Receptor Binding Using Brain Membrane
In this assay, [^3H]SR141716A (5-(4-chlorophenyl)-1-(2,4-dichlorophenyl)-4-methyl-N-(1-piperidyl)pyrazole-3-carboxamide) was used to bind the CB1 receptor present in a rat brain membrane preparation which can be displaced by unlabeled ligands having affinity to the CB1 receptor.
The assay was performed according to the modified method of Thomas et al., 1998 (JPET 285: 285-292). The total reaction mixture ([…]) contained Tris-BSA buffer (50 mM Tris, pH 7.4 with 1.5% BSA) or unlabeled SR141716A […] or test samples […], [^3H] SR141716A (2 nM) and […] of rat brain membrane. The non-specific binding was defined by […] of SR141716A. The assay mixture was incubated at 37° C. for 1 hour. The reaction was then stopped by rapid filtration under vacuum using Whatman GF/B-96 micro filter plate. A scintillation cocktail was added and radioactive counts were measured using a Topcount beta scintillation counter.
The standard and test sample dilutions were made in an assay buffer containing either ethanol or DMSO at a final concentration of 1%.
The percent (%) displacement by a test ligand was calculated by comparing the specific bound values.

The target in another data set is hCB2 (Homo sapiens, UniProt P34972). The data set is described as follows: In vitro binding assay using hCB2-CHO membranes, [3H]-CP-55,940 displacement (Protocol IV). As to conditions: for inhibition at 0.3 µM: 1 h, read-out: % Displacement Protocol IV. More on the design: expressed in transfected cells; host or cells: CHO (hCB2-CHO, generated in-house). In a few lines: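 Compounds were tested at a single 300 nM final concentration for displacing 0.75 nM [3H]-CP-55,940 from hCB2-CHO membranes (1 h, 30 °C, 50 mM Tris pH 7.4, 5 mM MgCl2, 1 mM EDTA, 0.1% BSA). Filter-bound radioactivity was counted, with 0.5 μM unlabelled CP-55,940 for nonspecific binding; results are % displacement.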

Setting [1] is: rat brain membrane, [3H]SR141716A displacement.
[2] abbreviates: hCB2-CHO membranes, [3H]-CP-55,940 displacement.
The mark [3] stands for this setting: rat brain membrane, [3H]SR141716A displacement, read-out: % Displacement Protocol I.
[4] abbreviates: read-out: % Displacement Protocol I, rat brain membrane, [3H]SR141716A displacement.

Where a name gives a salt, the structure may show the parent alone. Read-outs that look alike come from different tables or passages of the source.

Chain of CB1 (P20272 whole entry): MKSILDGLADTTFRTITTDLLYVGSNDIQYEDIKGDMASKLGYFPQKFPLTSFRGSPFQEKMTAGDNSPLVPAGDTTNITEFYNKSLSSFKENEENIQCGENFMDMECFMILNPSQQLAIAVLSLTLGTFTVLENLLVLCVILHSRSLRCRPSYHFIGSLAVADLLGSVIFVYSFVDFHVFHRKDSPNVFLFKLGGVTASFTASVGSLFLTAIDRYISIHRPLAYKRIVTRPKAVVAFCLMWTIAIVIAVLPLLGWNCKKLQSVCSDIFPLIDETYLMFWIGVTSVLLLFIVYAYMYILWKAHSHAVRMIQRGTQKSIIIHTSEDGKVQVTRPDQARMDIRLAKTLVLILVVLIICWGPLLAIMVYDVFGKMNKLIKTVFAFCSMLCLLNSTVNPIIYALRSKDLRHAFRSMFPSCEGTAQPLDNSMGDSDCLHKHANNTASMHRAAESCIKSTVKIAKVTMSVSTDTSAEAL
Chain of hCB2 (P34972 whole entry): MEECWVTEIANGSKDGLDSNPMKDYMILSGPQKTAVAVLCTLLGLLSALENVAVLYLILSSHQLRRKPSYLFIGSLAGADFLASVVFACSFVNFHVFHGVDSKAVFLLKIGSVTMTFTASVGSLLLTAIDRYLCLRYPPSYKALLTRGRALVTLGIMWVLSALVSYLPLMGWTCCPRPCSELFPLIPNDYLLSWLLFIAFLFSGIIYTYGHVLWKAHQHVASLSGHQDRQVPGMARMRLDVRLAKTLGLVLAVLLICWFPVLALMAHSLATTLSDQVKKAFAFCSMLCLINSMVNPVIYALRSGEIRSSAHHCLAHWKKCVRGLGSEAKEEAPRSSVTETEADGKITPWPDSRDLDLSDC

For the molecule `O=C(Nc1ccccc1)c1nn(-c2ccc(Cl)cc2)c2c1C1CC3CC(C1)CC2C3` [Example 142, N(7)-Phenyl-5-(4′-chlorophenyl)-5,6-diazatetracyclo[7.3.1.1^3,11.0^4,8]tetradeca-4(8)-6-diene-7-carboxamide], on CB1 (setting [1]), the “% Displacement Protocol I” value was determined as 25%. Besides, on hCB2 (setting [2]), the “% Displacement Protocol IV” value was 9.86%.
On to `O=C(NN1CCCCC1)c1nn(-c2ccc(Cl)cc2Cl)c2c1C1c3ccccc3C2C2C(=O)N(c3ccc(Cl)cc3)C(=O)C12` (stereo not shown) [Example 602, N(12)-Piperidino-16-(4-chlorophenyl)-10-(2,4-dichlorophenyl)-15,17-dioxo-10,11,16-triazapentacyclo[6.5.2.0^2,7.0^9,13.0^14,18]octadeca-2,4,6,9(13),11-pentaene-12-carboxamide], for which the “% Displacement Protocol I” value at CB1 (setting [1]) was 4.1%. In addition, at hCB2 (setting [2]), the “% Displacement Protocol IV” value is given as 16.4%.
Consider `O=C(NN1CCCCC1)c1nn(-c2ccc(F)cc2F)c2c1C1CCC2C1` (stereo not shown) [Example 289, N(3)-Piperidino-1-(2,4-difluorophenyl)-4,5,6,7-tetrahydro-1H-4,7-methano-indazole-3-carboxamide], for which the melting point was determined as 143 °C. The inhibition at CB1 (setting [3]) was 71.3%.
Regarding `O=C(NCCc1ccccc1)c1nn(-c2ccc(Cl)cc2Cl)c2c1C1CCC2C1` (stereo not shown) [Example 254, N(3)-(2-phenylethyl)-1-(2,4-dichlorophenyl)-4,5,6,7-tetrahydro-1H-4,7-methano-indazole-3-carboxamide], at CB1 (setting [3]), the inhibition was 9.1%.
In turn, `O=C(NNc1ccccc1)c1nn(-c2ccc(F)cc2F)c2c1C1CCC2C1` (stereo not shown) [Example 285, N(3)-Phenylamino-1-(2,4-difluorophenyl)-4,5,6,7-tetrahydro-1H-4,7-methano-indazole-3-carboxamide] came in with a melting point of 161 °C. Moreover, at CB1 (setting [3]), the inhibition is 61.9%.
Consider `O=C(NNc1ccccc1Cl)c1nn(-c2ccc(Cl)cc2)c2c1C1CC3CC(C1)CC2C3` [Example 124, N(7)-(2-Chlorophenylamino)-5-(4-chlorophenyl)-5,6-diazatetracyclo[7.3.1.1^3,11.0^4,8]tetradeca-4(8),6-diene-7-carboxamide hydrochloride], for which the inhibition at CB1 (setting [4]) came out at 80.1%.
In the case of `O=C(NCc1ccccc1)c1nn(-c2ccc(F)cc2)c2c1C1CCC2C1` (stereo not shown) [Example 280, N(3)-Benzyl-1-(4-fluorophenyl)-4,5,6,7-tetrahydro-1H-4,7-methano-indazole-3-carboxamide], the melting point is 104 °C. Also, the inhibition at CB1 (setting [3]) was found to be 33%.
Regarding `O=C(Nc1cccc(Br)c1)c1n[nH]c2c1C1(c3ccc(Cl)cc3)CCC2C1` (stereo not shown) [Example 217, N(3)-(3-Bromophenyl)-4-(4-chlorophenyl)-4,5,6,7-tetrahydro-1H-4,7-methano-indazole-3-carboxamide], the inhibition on CB1 (setting [3]) was 20.5%. Further, the inhibition at 0.3 µM on hCB2 (setting [2]) amounted to 10.7%.
For `O=C(NCc1ccc(C(F)(F)F)cc1)c1nn(-c2ccc(Cl)cc2)c2c1C1CC3CC(C1)CC2C3` [Example 116, N(7)-(4-Trifluoromethylbenzyl)-5-(4-chlorophenyl)-5,6-diazatetracyclo[7.3.1.1^3,11.0^4,8]tetradeca-4(8),6-diene-7-carboxamide], at CB1 (setting [4]), the inhibition was 24.9%.
For `O=C(NCc1ccccc1)c1nn(-c2ccccc2Cl)c2c1C1CCC2C1` (stereo not shown) [Example 207, N(3)-Benzyl-1-(2-chlorophenyl)-4,5,6,7-tetrahydro-1H-4,7-methano-indazole-3-carboxamide], the inhibition on CB1 (setting [3]) was -1.2%.
The same measure, in the same setting: to `O=C(NCCc1ccc(F)cc1)c1nn(-c2ccc(Cl)cc2Cl)c2c1C1CCC2C1` (stereo not shown) [Example 255, N(3)-[2-(4-fluorophenyl)ethyl]-1-(2,4-dichlorophenyl)-4,5,6,7-tetrahydro-1H-4,7-methano-indazole-3-carboxamide] belongs 23.9%.
In turn, `CC12CCC(c3c(C(=O)NNc4ncccc4Cl)nn(-c4ccc(Cl)cc4Cl)c31)C2(C)C` (stereo not shown) [Example 404, N(3)-[(3-chloropyridin-2-yl)amino]-1-(2,4-Dichlorophenyl)-7,8,8-trimethyl-4,5,6,7-tetrahydro-1H-4,7-methano-indazole-3-carboxamide] had a melting point of 142 to 145 °C. Besides, the inhibition at 0.3 µM on hCB2 (setting [2]) amounted to 23.8%.
In turn, `O=C(NC1(c2ccccc2)CC1)c1nn(-c2ccc(F)cc2F)c2c1C1CCC2C1` (stereo not shown) [Example 308, N5-(1-phenylcyclopropyl)-3-(2,4-difluorophenyl)-3,4-diazatricyclo[5.2.1.0^2,6]deca-2(6),4-diene-5-carboxamide] showed a melting point of 90 °C. For the same molecule, the inhibition at 0.3 µM on hCB2 came out at 86.6%.
On the same counts, the results for `CCC(C)(C)NC(=O)c1nn(-c2ccc(F)cc2F)c2c1C1CCC2C1` (stereo not shown) [Example 313, N(3)-(tert-Pentyl)-1-(2,4-difluorophenyl)-4,5,6,7-tetrahydro-1H-4,7-methano-indazole-3-carboxamide] are 78 to 80 °C and 98.2%.
For the molecule `CC(C)(NC(=O)c1nn(-c2ccc(F)cc2F)c2c1C1CC3CC(C1)CC2C3)c1ccccc1Cl` [Example 153, N7-[1-(2-Chlorophenyl)-1-methylethyl]-5-(2,4-difluorophenyl)-5,6-diazatetracyclo[7.3.1.1^3,11.0^4,8]tetradeca-4(8),6-diene-7-carboxamide], the melting point was 145 to 147 °C. Also, the inhibition at 0.3 µM at hCB2 (setting [2]) came to 99.5%.
Molecule `CC12CCC(C1)C(C)(C)C2NC(=O)c1nn(-c2ccc(F)cc2F)c2c1C1CCC2(C)C1(C)C` (stereo not shown) [Example 406, N(3)-(1,3,3-Trimethylbicyclo[2.2.1]hept-2-yl)-1-(2,4-difluorophenyl)-7,8,8-trimethyl-4,5,6,7-tetrahydro-1H-4,7-methano-indazole-3-carboxamide] registered a melting point of 171 to 173 °C. Further, on hCB2, the inhibition at 0.3 µM worked out at 94.3%.
In turn, `O=C(NCc1cccnc1)c1nn(-c2ccc(Cl)cc2)c2c1C1CC3CC(C1)CC2C3` [Example 104, N(7)-(3-Pyridylmethyl)-5-(4-chlorophenyl)-5,6-diazatetracyclo[7.3.1.1^3,11.0^4,8]tetradeca-4(8),6-diene-7-carboxamide] registered a melting point of 180 °C. The inhibition at 0.3 µM at hCB2 (setting [2]) is 20.2%.
`O=C(NC12CC3CC(CC(C3)C1)C2)c1nn(-c2ccc(F)cc2)c2c1C1CCC2C1` (stereo not shown) [Example 283, N5-(Adamantan-1-yl)-3-(4-fluorophenyl)-3,4-diazatricyclo[5.2.1.0^2,6]deca-2(6),4-diene-5-carboxamide] yielded a melting point of 189 to 191 °C. Also, the inhibition at 0.3 µM on hCB2 was 94.8%.
On the same counts, the results for `O=C(NC1C2CC3CC(C2)CC1C3)c1nn(-c2ccc(F)cc2)c2c1C1CCC2C1` (stereo not shown) [Example 281, N5-(Adamantan-2-yl)-3-(4-fluorophenyl)-3,4-diazatricyclo[5.2.1.0^2,6]deca-2(6),4-diene-5-carboxamide] are 196 to 198 °C and 97.1%.
For the molecule `O=C(c1nn(-c2ccc(Cl)cc2)c2c1C1CC3CC(C1)CC2C3)N1CCCCC1` [Example 141, 7-(4′-Chlorophenyl)-6,7-diazatetracyclo[7.3.1.1^3,11.0^4,8]tetradeca-4(8)-5-dien-5-yl-piperidinomethanone], the “% Displacement Protocol I” value on CB1 (setting [1]) was found to be 17%.
Consider `O=C(NC1C2CC3CC(C2)CC1C3)c1nn(-c2ccc(F)cc2F)c2c1C1CCC2C1` (stereo not shown) [Example 309, N5-(2-Adamantyl)-3-(2,4-difluorophenyl)-3,4-diazatricyclo[5.2.1.0^2,6]deca-2(6),4-diene-5-carboxamide], for which the melting point lay within 159 to 161 °C. For the same molecule, the inhibition at 0.3 µM on hCB2 was determined as 98.5%.
On the same counts, the results for `CC12CCC(C1)C(C)(C)C2NC(=O)c1nn(-c2ccc(F)cc2)c2c1C1CC3CC(C1)CC2C3` (stereo not shown) [Example 159, N7-(1,3,3-Trimethylbicyclo[2.2.1]hept-2-yl)-5-(4-fluorophenyl)-5,6-diazatetracyclo[7.3.1.1^3,11.0^4,8]tetradeca-4(8),6-diene-7-carboxamide] are 139 to 141 °C and 97.7%.
`CC(C)(NC(=O)c1nn(-c2ccc(F)cc2F)c2c1C1CCC2C1)c1ccccc1Cl` (stereo not shown) [Example 295, N5-[1-(2-Chlorophenyl)-1-methylethyl]-3-(2,4-difluorophenyl)-3,4-diazatricyclo[5.2.1.0^2,6]deca-2(6),4-diene-5-carboxamide]: the melting point fell in the range of 176 to 179 °C. Besides, the inhibition at 0.3 µM at hCB2 was determined as 100%.

The record behind these values is US7923465B2, “Cannabinoid receptor ligands, pharmaceutical compositions containing them, and process for their preparation” (priority 2005, dated 2011).
